According to ChEMBL document CHEMBL5365402, “Phytochemical investigation of Asarum sieboldii var. seoulense and the phenotypic profiles of its constituents against a Parkinson's Disease olfactory cell line” (Bioorg Med Chem Lett, 2023):
Calls of active or inactive are those of the source. No cut-off for these calls is given here.

Key:
Assay type in all cases: functional, subcellular
ONS [1] = assay: Anti-parkinson's disease activity in human ONS cells assessed as early endosome marker intensity in cytoplasm at 5 uM by heat map analysis
ONS [2] = assay: Anti-parkinson's disease activity in human ONS cells assessed as lysosome marker intensity in cytoplasm at 5 uM by heat map analysis
ONS [3] = assay: Anti-parkinson's disease activity in human ONS cells assessed as negative mitochondrial marker intensity in cytoplasm at 5 uM by heat map analysis
ONS [4] = assay: Anti-parkinson's disease activity in human ONS cells assessed as lysosome marker intensity in inner region of cytoplasm at 5 uM by heat map analysis
ONS [5] = assay: Anti-parkinson's disease activity in human ONS cells assessed as lysosome marker intensity in outer region of cytoplasm at 5 uM by heat map analysis
ONS [6] = assay: Anti-parkinson's disease activity in human ONS cells assessed as negative mitochondrial marker intensity in outer region of cytoplasm at 5 uM by heat map analysis
ONS [7] = assay: Anti-parkinson's disease activity in human ONS cells assessed as early endosome marker intensity in inner region of cytoplasm at 5 uM by heat map analysis
ONS [8] = assay: Anti-parkinson's disease activity in human ONS cells assessed as negative mitochondrial marker intensity in inner region of cytoplasm at 5 uM by heat map analysis
ONS [9] = assay: Anti-parkinson's disease activity in human ONS cells assessed as early endosome marker intensity in outer region of cytoplasm at 5 uM by heat map analysis
ONS [10] = assay: Anti-parkinson's disease activity in human ONS cells assessed as LC3B marker intensity in inner region of cytoplasm at 5 uM by heat map analysis
ONS [11] = assay: Anti-parkinson's disease activity in human ONS cells assessed as LC3B marker intensity in cytoplasm at 5 uM by heat map analysis
ONS [12] = assay: Anti-parkinson's disease activity in human ONS cells assessed as LC3B marker intensity in outer region of cytoplasm at 5 uM by heat map analysis
ONS [13] = assay: Anti-parkinson's disease activity in human ONS cells assessed as alpha-tubulin marker intensity in inner region of cytoplasm at 5 uM by heat map analysis
ONS [14] = assay: Anti-parkinson's disease activity in human ONS cells assessed as alpha-tubulin marker intensity in outer region of cytoplasm at 5 uM by heat map analysis
ONS [15] = assay: Anti-parkinson's disease activity in human ONS cells assessed as alpha-tubulin marker intensity in cytoplasm at 5 uM by heat map analysis

With `CCC(=O)c1cc2c(cc1O)OCO2` the Activity (ONS [1]) was “inactive”, the Activity (ONS [2]) was “inactive” and the Activity (ONS [3]) was “inactive”. The Activity (ONS [4]) was “inactive”, the Activity (ONS [5]) was “inactive” and the Activity (ONS [6]) was “inactive”. For the same compound, the Activity (ONS [7]) was “inactive”, the Activity (ONS [8]) was “inactive” and the Activity (ONS [9]) was “inactive”.
`C/C=C/C=C/CC/C=C/C=C/C(=O)NCC(C)C` was tested, and the Activity (ONS [3]) was “Active”, the Activity (ONS [10]) was “Active” and the Activity (ONS [11]) was “Active”. The Activity (ONS [12]) was “Active”, the Activity (ONS [6]) was “Active” and the Activity (ONS [8]) was “Active”.
In the case of `COc1cc([C@H]2OC[C@H]3[C@@H]2CO[C@H]3c2ccc3c(c2)OCO3)ccc1O`, the Activity (ONS [1]) is reported as “inactive”, the Activity (ONS [2]) is reported as “inactive” and the Activity (ONS [3]) is reported as “inactive”. For the same compound, the Activity (ONS [4]) was “inactive”, the Activity (ONS [5]) was “inactive” and the Activity (ONS [6]) was “inactive”. The Activity (ONS [7]) was “inactive”, the Activity (ONS [8]) was “inactive” and the Activity (ONS [9]) was “inactive”.
For `C=CCc1cc(OC)c(OC)c(OC)c1`, the Activity (ONS [1]) was “Active”, the Activity (ONS [13]) was “Active” and the Activity (ONS [2]) was “Active”. The Activity (ONS [14]) was “Active”, the Activity (ONS [4]) was “Active” and the Activity (ONS [15]) was “Active”. For the same compound, the Activity (ONS [5]) was “Active”, the Activity (ONS [7]) was “Active” and the Activity (ONS [9]) was “Active”.
With `C=CCc1cc(OC)c(O)c(OC)c1` the Activity (ONS [1]) was “Active”, the Activity (ONS [13]) was “Active” and the Activity (ONS [2]) was “Active”. The Activity (ONS [14]) was “Active”, the Activity (ONS [4]) was “Active” and the Activity (ONS [15]) was “Active”. The Activity (ONS [5]) was “Active”, the Activity (ONS [7]) was “Active” and the Activity (ONS [9]) was “Active”.
For `CCC(=O)c1ccc2c(c1)OCO2`, the Activity (ONS [1]) was “Active”, the Activity (ONS [13]) was “Active” and the Activity (ONS [2]) was “Active”. For the same compound, the Activity (ONS [14]) was “Active”, the Activity (ONS [4]) was “Active” and the Activity (ONS [15]) was “Active”. For the same compound, the Activity (ONS [5]) was “Active”, the Activity (ONS [7]) was “Active” and the Activity (ONS [9]) was “Active”.
`C/C=C/C=C\CC/C=C/C=C/C(=O)NCC(C)C` was tested, and the Activity (ONS [3]) was “Active”, the Activity (ONS [10]) was “Active” and the Activity (ONS [11]) was “Active”. The Activity (ONS [12]) was “Active”, the Activity (ONS [6]) was “Active” and the Activity (ONS [8]) was “Active”.
`C/C=C\C=C/CC/C=C/C=C/C(=O)NCC(C)C` was tested, and the Activity (ONS [1]) was “Active”, the Activity (ONS [13]) was “Active” and the Activity (ONS [2]) was “Active”. For the same compound, the Activity (ONS [14]) was “Active”, the Activity (ONS [4]) was “Active” and the Activity (ONS [15]) was “Active”. The Activity (ONS [5]) was “Active”, the Activity (ONS [7]) was “Active” and the Activity (ONS [9]) was “Active”.
`COc1cc(/C=C/C(=O)O)ccc1O` was tested, and the Activity (ONS [1]) was “Active”, the Activity (ONS [13]) was “Active” and the Activity (ONS [2]) was “Active”. For the same compound, the Activity (ONS [14]) was “Active”, the Activity (ONS [4]) was “Active” and the Activity (ONS [15]) was “Active”. The Activity (ONS [5]) was “Active”, the Activity (ONS [7]) was “Active” and the Activity (ONS [9]) was “Active”.
`O=C(O)c1ccc(O)cc1` was tested, and the Activity (ONS [1]) was “Active”, the Activity (ONS [13]) was “Active” and the Activity (ONS [2]) was “Active”. The Activity (ONS [14]) was “Active”, the Activity (ONS [4]) was “Active” and the Activity (ONS [15]) was “Active”. The Activity (ONS [5]) was “Active”, the Activity (ONS [7]) was “Active” and the Activity (ONS [9]) was “Active”.
For `COc1cc([C@H]2OC[C@H]3[C@@H]2CO[C@@H]3c2ccc3c(c2)OCO3)ccc1O`, the Activity (ONS [3]) was “Active”, the Activity (ONS [10]) was “Active” and the Activity (ONS [11]) was “Active”. For the same compound, the Activity (ONS [12]) was “Active”, the Activity (ONS [6]) was “Active” and the Activity (ONS [8]) was “Active”.
`CCC(=O)c1cc2c(cc1OC)OCO2` was tested, and the Activity (ONS [1]) was “inactive”, the Activity (ONS [2]) was “inactive” and the Activity (ONS [3]) was “inactive”. For the same compound, the Activity (ONS [4]) was “inactive”, the Activity (ONS [5]) was “inactive” and the Activity (ONS [6]) was “inactive”. For the same compound, the Activity (ONS [7]) was “inactive”, the Activity (ONS [8]) was “inactive” and the Activity (ONS [9]) was “inactive”.
In the case of `c1cc2c(cc1[C@H]1OC[C@H]3[C@@H]1CO[C@@H]3c1ccc3c(c1)OCO3)OCO2`, the Activity (ONS [1]) is reported as “inactive”, the Activity (ONS [2]) is reported as “inactive” and the Activity (ONS [3]) is reported as “inactive”. For the same compound, the Activity (ONS [4]) was “inactive”, the Activity (ONS [5]) was “inactive” and the Activity (ONS [6]) was “inactive”. For the same compound, the Activity (ONS [7]) was “inactive”, the Activity (ONS [8]) was “inactive” and the Activity (ONS [9]) was “inactive”.
For `O=C(O)/C=C/c1ccc(O)cc1`, the Activity (ONS [1]) was “inactive”, the Activity (ONS [2]) was “inactive” and the Activity (ONS [3]) was “inactive”. For the same compound, the Activity (ONS [4]) was “inactive”, the Activity (ONS [5]) was “inactive” and the Activity (ONS [6]) was “inactive”. The Activity (ONS [7]) was “inactive”, the Activity (ONS [8]) was “inactive” and the Activity (ONS [9]) was “inactive”.
`COc1cc(C(=O)O)ccc1O` was tested, and the Activity (ONS [1]) was “Active”, the Activity (ONS [13]) was “Active” and the Activity (ONS [2]) was “Active”. For the same compound, the Activity (ONS [14]) was “Active”, the Activity (ONS [4]) was “Active” and the Activity (ONS [15]) was “Active”. For the same compound, the Activity (ONS [5]) was “Active”, the Activity (ONS [7]) was “Active” and the Activity (ONS [9]) was “Active”.
In the case of `CCC(=O)c1cc(OC)c(O)cc1O`, the Activity (ONS [1]) is reported as “Active”, the Activity (ONS [13]) is reported as “Active” and the Activity (ONS [2]) is reported as “Active”. For the same compound, the Activity (ONS [14]) was “Active”, the Activity (ONS [4]) was “Active” and the Activity (ONS [15]) was “Active”. For the same compound, the Activity (ONS [5]) was “Active”, the Activity (ONS [7]) was “Active” and the Activity (ONS [9]) was “Active”.
For `c1cc2c(cc1[C@H]1OC[C@H]3[C@@H]1CO[C@H]3c1ccc3c(c1)OCO3)OCO2`, the Activity (ONS [1]) was “Active”, the Activity (ONS [13]) was “Active” and the Activity (ONS [2]) was “Active”. The Activity (ONS [14]) was “Active”, the Activity (ONS [4]) was “Active” and the Activity (ONS [15]) was “Active”. For the same compound, the Activity (ONS [5]) was “Active”, the Activity (ONS [7]) was “Active” and the Activity (ONS [9]) was “Active”.
With `C=CCc1cc2c(cc1OC)OCO2` the Activity (ONS [1]) was “Active”, the Activity (ONS [13]) was “Active” and the Activity (ONS [2]) was “Active”. The Activity (ONS [14]) was “Active”, the Activity (ONS [4]) was “Active” and the Activity (ONS [15]) was “Active”. The Activity (ONS [5]) was “Active”, the Activity (ONS [7]) was “Active” and the Activity (ONS [9]) was “Active”.
`C/C=C\CC/C=C/C=C/C(=O)NCC(C)C` was tested, and the Activity (ONS [1]) was “Active”, the Activity (ONS [13]) was “Active” and the Activity (ONS [2]) was “Active”. The Activity (ONS [14]) was “Active”, the Activity (ONS [4]) was “Active” and the Activity (ONS [15]) was “Active”. For the same compound, the Activity (ONS [5]) was “Active”, the Activity (ONS [7]) was “Active” and the Activity (ONS [9]) was “Active”.
